Test results from US20250275540A1, “USE OF PROTOPORPHYRINOGEN OXIDASE” (BEIJING DABEINONG BIOTECHNOLOGY CO., LTD., priority 2022, published 2025).

System: transgenic soybean plants
Assay: Detection of the herbicide tolerance of the transgenic soybean plants
Type: in vivo
Details: for The grade of pesticide damage/plant: 0 / The grade of pesticide damage/plant: 1 / The grade of pesticide damage/plant: 2 / The grade of pesticide damage/plant: 3: 7 DAT
[1] = genotype Control vector, 120 g ai/ha
[2] = genotype Control vector, 240 g ai/ha
[3] = genotype PPO-AP-01, 120 g ai/ha
[4] = genotype PPO-AP-01, 240 g ai/ha
[5] = genotype PPO-EC-01, 120 g ai/ha
[6] = genotype PPO-EC-01, 240 g ai/ha

C#CCN1C(=O)COc2cc(F)c(N3C(=O)C4=C(CCCC4)C3=O)cc21 [flumioxazin, 2-[7-fluoro-3,4-dihydro-3-oxo-4-(2-propynyl)-2H-1,4-benzoxazin-6-yl]-4,5,6,7-tetrahydro-1H-isoindole-1,3(2H)-dione]
no flumioxazin tolerance: tolerance to the herbicide (in words) (genotype PPO-AP-01, at different concentrations)
14 plant: The grade of pesticide damage/plant: 0 (genotype PPOA-01, 240 g ai/ha) | The grade of pesticide damage/plant: 0 (genotype PPOF-01, 240 g ai/ha)
16 plant: The grade of pesticide damage/plant: 3 (genotype CK, 120 g ai/ha) | The grade of pesticide damage/plant: 3 (genotype CK, 240 g ai/ha) | The grade of pesticide damage/plant: 3 [1] | The grade of pesticide damage/plant: 3 [2] | The grade of pesticide damage/plant: 3 [3] | The grade of pesticide damage/plant: 3 [4] | The grade of pesticide damage/plant: 0 [5] | The grade of pesticide damage/plant: 0 (genotype PPOA-01, 120 g ai/ha) | The grade of pesticide damage/plant: 0 (genotype PPOB-01, 120 g ai/ha) | The grade of pesticide damage/plant: 0 (genotype PPOC-01, 120 g ai/ha) | The grade of pesticide damage/plant: 0 (genotype PPOC-01, 240 g ai/ha) | The grade of pesticide damage/plant: 0 (genotype PPOD-01, 120 g ai/ha) | The grade of pesticide damage/plant: 0 (genotype PPOD-01, 240 g ai/ha) | The grade of pesticide damage/plant: 0 (genotype PPOE-01, 120 g ai/ha) | The grade of pesticide damage/plant: 0 (genotype PPOF-01, 120 g ai/ha)
1 plant: The grade of pesticide damage/plant: 1 [6] | The grade of pesticide damage/plant: 1 (genotype PPOB-01, 240 g ai/ha) | The grade of pesticide damage/plant: 1 (genotype PPOE-01, 240 g ai/ha)
15 plant: The grade of pesticide damage/plant: 0 [6] | The grade of pesticide damage/plant: 0 (genotype PPOB-01, 240 g ai/ha) | The grade of pesticide damage/plant: 0 (genotype PPOE-01, 240 g ai/ha)
0 plant: The grade of pesticide damage/plant: 0 (genotype CK, 120 g ai/ha) | The grade of pesticide damage/plant: 1 (genotype CK, 120 g ai/ha) | The grade of pesticide damage/plant: 2 (genotype CK, 120 g ai/ha) | The grade of pesticide damage/plant: 0 (genotype CK, 240 g ai/ha) | The grade of pesticide damage/plant: 1 (genotype CK, 240 g ai/ha) | The grade of pesticide damage/plant: 2 (genotype CK, 240 g ai/ha) | The grade of pesticide damage/plant: 0 [1] | The grade of pesticide damage/plant: 1 [1] | The grade of pesticide damage/plant: 2 [1] | The grade of pesticide damage/plant: 0 [2] | The grade of pesticide damage/plant: 1 [2] | The grade of pesticide damage/plant: 2 [2] | The grade of pesticide damage/plant: 0 [3] | The grade of pesticide damage/plant: 1 [3] | The grade of pesticide damage/plant: 2 [3] | The grade of pesticide damage/plant: 0 [4] | The grade of pesticide damage/plant: 1 [4] | The grade of pesticide damage/plant: 2 [4] | The grade of pesticide damage/plant: 1 [5] | The grade of pesticide damage/plant: 2 [5] | The grade of pesticide damage/plant: 3 [5] | The grade of pesticide damage/plant: 2 [6] | The grade of pesticide damage/plant: 3 [6] | The grade of pesticide damage/plant: 1 (genotype PPOA-01, 120 g ai/ha) | The grade of pesticide damage/plant: 2 (genotype PPOA-01, 120 g ai/ha) | The grade of pesticide damage/plant: 3 (genotype PPOA-01, 120 g ai/ha) | The grade of pesticide damage/plant: 2 (genotype PPOA-01, 240 g ai/ha) | The grade of pesticide damage/plant: 3 (genotype PPOA-01, 240 g ai/ha) | The grade of pesticide damage/plant: 1 (genotype PPOB-01, 120 g ai/ha) | The grade of pesticide damage/plant: 2 (genotype PPOB-01, 120 g ai/ha) | The grade of pesticide damage/plant: 3 (genotype PPOB-01, 120 g ai/ha) | The grade of pesticide damage/plant: 2 (genotype PPOB-01, 240 g ai/ha) | The grade of pesticide damage/plant: 3 (genotype PPOB-01, 240 g ai/ha) | The grade of pesticide damage/plant: 1 (genotype PPOC-01, 120 g ai/ha) | The grade of pesticide damage/plant: 2 (genotype PPOC-01, 120 g ai/ha) | The grade of pesticide damage/plant: 3 (genotype PPOC-01, 120 g ai/ha) | The grade of pesticide damage/plant: 1 (genotype PPOC-01, 240 g ai/ha) | The grade of pesticide damage/plant: 2 (genotype PPOC-01, 240 g ai/ha) | The grade of pesticide damage/plant: 3 (genotype PPOC-01, 240 g ai/ha) | The grade of pesticide damage/plant: 1 (genotype PPOD-01, 120 g ai/ha) | The grade of pesticide damage/plant: 2 (genotype PPOD-01, 120 g ai/ha) | The grade of pesticide damage/plant: 3 (genotype PPOD-01, 120 g ai/ha) | The grade of pesticide damage/plant: 1 (genotype PPOD-01, 240 g ai/ha) | The grade of pesticide damage/plant: 2 (genotype PPOD-01, 240 g ai/ha) | The grade of pesticide damage/plant: 3 (genotype PPOD-01, 240 g ai/ha) | The grade of pesticide damage/plant: 1 (genotype PPOE-01, 120 g ai/ha) | The grade of pesticide damage/plant: 2 (genotype PPOE-01, 120 g ai/ha) | The grade of pesticide damage/plant: 3 (genotype PPOE-01, 120 g ai/ha) | The grade of pesticide damage/plant: 2 (genotype PPOE-01, 240 g ai/ha) | The grade of pesticide damage/plant: 3 (genotype PPOE-01, 240 g ai/ha) | The grade of pesticide damage/plant: 1 (genotype PPOF-01, 120 g ai/ha) | The grade of pesticide damage/plant: 2 (genotype PPOF-01, 120 g ai/ha) | The grade of pesticide damage/plant: 3 (genotype PPOF-01, 120 g ai/ha) | The grade of pesticide damage/plant: 2 (genotype PPOF-01, 240 g ai/ha) | The grade of pesticide damage/plant: 3 (genotype PPOF-01, 240 g ai/ha)
2 plant: The grade of pesticide damage/plant: 1 (genotype PPOA-01, 240 g ai/ha) | The grade of pesticide damage/plant: 1 (genotype PPOF-01, 240 g ai/ha)
high-resistant tolerance: tolerance to the herbicide (in words) (genotypes PPOA-01 to PPOF-01 and PPO-EC-01, at different concentrations)
